Legend:
[1] = Cytotoxicity against human MCF7 cells after 48 hrs by XTT reduction assay; format: cell-based
[2] = Selectivity index, ratio of CC50 for human MCF7 cells to IC50 for chloroquine-resistant Plasmodium falciparum FcB1 infected in RBC; format: functional
Plasmodium falciparum = test: Antiplasmodial activity against chloroquine-resistant Plasmodium falciparum FcB1 infected in RBC assessed as inhibition of [3H]-hypoxanthine incorporation after 48 hrs by beta-counting; format: functional, organism-based; settings: FcB1/Columbia

SMILES	CC50 at 48 h [1]	Ratio CC50/IC50 [2]	IC50 (Plasmodium falciparum)
O=C1C(c2ccccc2)=Nc2ccccc21	164 µM	135	1.33 µM
COc1ccc2c(c1)C(=O)C(c1ccccc1)=N2	21 µM	146	0.141 µM
COc1ccc(C2=Nc3ccc(OC)cc3C2=O)cc1	30.7 µM	381.4	0.08 µM
C[C@H]1[C@H](OC(=O)CCC(=O)O)O[C@@H]2O[C@@]3(C)CC[C@H]4[C@H](C)CC[C@@H]1[C@@]24OO3 [SODIUM ARESUNATE]			0.006 µM
O=C1C(c2ccc(Cl)cc2)=Nc2ccccc21	20.3 µM	105	0.192 µM
COc1ccc2c(c1)C(=O)C(c1ccc(N(C)C)cc1)=N2	20.7 µM	423.4	0.049 µM
COc1ccc2c(c1)C(=O)C(c1ccc(OC(C)C)cc1)=N2	11.2 µM	127	0.088 µM
COc1ccc2c(c1)C(=O)C(c1ccc(O)cc1)=N2	16 µM	164	0.099 µM
O=C1C(c2ccc(O)cc2)=Nc2ccccc21	130 µM	1289	0.101 µM
COc1ccc(C2=Nc3ccccc3C2=O)cc1	38 µM	74	0.514 µM
